Measured values from BindingDB's records for doi:10.1021/jm00010a019 (Boehringer Ingelheim Pharmaceuticals, 1995).

biological target: T1, Renin (Homo sapiens, UniProt P00797); assay: Component acylation rate constant by the compound against Renin was determined
T1 sequence (P00797 whole entry): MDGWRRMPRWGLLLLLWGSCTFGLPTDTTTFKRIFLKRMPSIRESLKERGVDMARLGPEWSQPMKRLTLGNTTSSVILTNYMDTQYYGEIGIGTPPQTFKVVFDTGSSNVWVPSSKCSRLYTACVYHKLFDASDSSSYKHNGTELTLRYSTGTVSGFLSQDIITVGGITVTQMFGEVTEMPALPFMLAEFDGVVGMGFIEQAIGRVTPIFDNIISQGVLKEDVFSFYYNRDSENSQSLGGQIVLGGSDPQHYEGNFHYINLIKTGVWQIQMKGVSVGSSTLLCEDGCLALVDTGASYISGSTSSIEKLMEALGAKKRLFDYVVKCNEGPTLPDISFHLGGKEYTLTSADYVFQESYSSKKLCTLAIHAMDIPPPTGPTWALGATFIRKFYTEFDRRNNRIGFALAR

SMILES	koff
CC(C)C[C@H](O)[C@H](O)[C@H](CC1CCCCC1)NC(=O)[C@@H](CC(=O)N(CC(=O)N(C)CCN(C)C(=O)N1CCOCC1)[C@@H](C)c1ccccc1)Cc1csc(N)n1 [(R)-2-(2-Amino-thiazol-4-ylmethyl)-N*1*-((1S,2R,3S)-1-cyclohexylmethyl-2,3-dihydroxy-5-methyl-hexyl)-N*4*-[(methyl-{2-[methyl-(morpholine-4-carbonyl)-amino]-ethyl}-carbamoyl)-methyl]-N*4*-((S)-1-phenyl-ethyl)-succinamide]	0.00133 s⁻¹
CC(C)C[C@H](O)[C@H](O)[C@H](CC1CCCCC1)NC(=O)[C@@H](CC(=O)N(CC(=O)N(C)CCc1ccccn1)[C@@H](C)c1ccccc1)Cc1csc(N)n1 [(R)-2-(2-Amino-thiazol-4-ylmethyl)-N*1*-((1S,2R,3S)-1-cyclohexylmethyl-2,3-dihydroxy-5-methyl-hexyl)-N*4*-{[methyl-(2-pyridin-2-yl-ethyl)-carbamoyl]-methyl}-N*4*-((S)-1-phenyl-ethyl)-succinamide]	0.00135 s⁻¹
COC1(CN(CC(=O)N(C)CCc2ccccn2)C(=O)C[C@@H](Cc2csc(N)n2)C(=O)N[C@@H](CC2CCCCC2)[C@@H](O)[C@@H](O)CC(C)C)CCCCC1 [(R)-2-(2-Amino-thiazol-4-ylmethyl)-N*1*-((1S,2R,3S)-1-cyclohexylmethyl-2,3-dihydroxy-5-methyl-hexyl)-N*4*-(1-methoxy-cyclohexylmethyl)-N*4*-{[methyl-(2-pyridin-2-yl-ethyl)-carbamoyl]-methyl}-succinamide]	0.00175 s⁻¹
CC(C)C[C@H](O)[C@H](O)[C@H](CC1CCCCC1)NC(=O)[C@@H](CC(=O)N(CC(=O)N(C)CCc1ccccn1)CC1CCCCC1)Cc1csc(N)n1 [2-(2-Amino-thiazol-4-ylmethyl)-N*4*-cyclohexylmethyl-N*1*-(1-cyclohexylmethyl-2,3-dihydroxy-5-methyl-hexyl)-N*4*-{[methyl-(2-pyridin-2-yl-ethyl)-carbamoyl]-methyl}-succinamide(BILA 2157 BS)]	0.00028 s⁻¹
CC(C)C[C@H](O)[C@H](O)[C@H](CC1CCCCC1)NC(=O)[C@@H](CC(=O)N(CC(=O)N(C)CCN1CCOCC1)[C@@H](C)c1ccccc1)Cc1csc(N)n1 [(R)-2-(2-Amino-thiazol-4-ylmethyl)-N*1*-((1S,2R,3S)-1-cyclohexylmethyl-2,3-dihydroxy-5-methyl-hexyl)-N*4*-{[methyl-(2-morpholin-4-yl-ethyl)-carbamoyl]-methyl}-N*4*-((S)-1-phenyl-ethyl)-succinamide]	0.00481 s⁻¹
CC(C)C[C@H](O)[C@H](O)[C@H](CC1CCCCC1)NC(=O)[C@@H](CC(=O)N(CC(=O)N(C)CCc1ccccn1)CC1(C)CCCCC1)Cc1csc(N)n1 [(R)-2-(2-Amino-thiazol-4-ylmethyl)-N*1*-((1S,2R,3S)-1-cyclohexylmethyl-2,3-dihydroxy-5-methyl-hexyl)-N*4*-(1-methyl-cyclohexylmethyl)-N*4*-{[methyl-(2-pyridin-2-yl-ethyl)-carbamoyl]-methyl}-succinamide]	0.000569 s⁻¹

Continued, values first:

koff	SMILES
0.0013 s⁻¹	CC(C)C[C@H](O)[C@H](O)[C@H](CC1CCCCC1)NC(=O)[C@@H](CC(=O)N(CC(=O)N(C)CCC(=O)N1CCOCC1)[C@@H](C)c1ccccc1)Cc1csc(N)n1 [(R)-2-(2-Amino-thiazol-4-ylmethyl)-N*1*-((1S,2R,3S)-1-cyclohexylmethyl-2,3-dihydroxy-5-methyl-hexyl)-N*4*-{[methyl-(3-morpholin-4-yl-3-oxo-propyl)-carbamoyl]-methyl}-N*4*-((S)-1-phenyl-ethyl)-succinamide]
0.000234 s⁻¹	CC(C)C[C@H](O)[C@H](O)[C@H](CC1CCCCC1)NC(=O)[C@@H](CC(=O)N(CC(=O)N(C)CCc1ccccn1)CC1CCCCCC1)Cc1csc(N)n1 [(R)-2-(2-Amino-thiazol-4-ylmethyl)-N*4*-cycloheptylmethyl-N*1*-((1S,2R,3S)-1-cyclohexylmethyl-2,3-dihydroxy-5-methyl-hexyl)-N*4*-{[methyl-(2-pyridin-2-yl-ethyl)-carbamoyl]-methyl}-succinamide]
